Measurements published in patent publication US9487749B2 (priority 2009, dated 2016).

Key:
[1] = tested on: Bifidobacterium bifidum ATCC #29521; experiment: Bifidobacterium bifidum growth in media fortified with MSM, 96 hours; format: cell-based
[2] = tested on: normal flora found in the milks; experiment: Growth of non-probiotic microorganisms in Acidophilus milk (standard plate counts); format: cell-based
Method: 31, 2013. […] The Acidophilus milk was low fat (Darigold). […] This was performed to look at how MSM would affect the normal flora found in the milks. Day 0 was the day the samples were setup for the start of the study. The Acidophilus plus Bifidus milk started with a higher count at Day 0 than what is typically expected. This caused the end values to be elevated. The Acidophilus milk product at Day 0 was at expected values. The Acidophilus milk maintained adequate growth rates through out the study and were equivalent to typical growth rates seen in milk products.

CS(C)(=O)=O [MSM, Methylsulfonylmethane]
Log Growth of Bifidobacteruim bifidum in Media Fortified with MSM ([1]; 0.125% MSM, Hr 0): 1.12 log | Log Growth of Bifidobacteruim bifidum in Media Fortified with MSM ([1]; 0.125% MSM, Hr 8): 2.89 log | Log Growth of Bifidobacteruim bifidum in Media Fortified with MSM ([1]; 0.125% MSM, Hr 16): 7.85 log | Log Growth of Bifidobacteruim bifidum in Media Fortified with MSM ([1]; 0.125% MSM, Hr 24): 9.06 log | Log Growth of Bifidobacteruim bifidum in Media Fortified with MSM ([1]; 0.125% MSM, Hr 32): 11.45 log | Log Growth of Bifidobacteruim bifidum in Media Fortified with MSM ([1]; 0.125% MSM, Hr 40): 10.80 log | Log Growth of Bifidobacteruim bifidum in Media Fortified with MSM ([1]; 0.125% MSM, Hr 48): 8.22 log | Log Growth of Bifidobacteruim bifidum in Media Fortified with MSM ([1]; 0.125% MSM, Hr 56): 7.25 log | Log Growth of Bifidobacteruim bifidum in Media Fortified with MSM ([1]; 0.125% MSM, Hr 64): 8.86 log | Log Growth of Bifidobacteruim bifidum in Media Fortified with MSM ([1]; 0.125% MSM, Hr 72): 6.59 log | Log Growth of Bifidobacteruim bifidum in Media Fortified with MSM ([1]; 0.125% MSM, Hr 80): 9.12 log | Log Growth of Bifidobacteruim bifidum in Media Fortified with MSM ([1]; 0.125% MSM, Hr 88): 9.12 log | Log Growth of Bifidobacteruim bifidum in Media Fortified with MSM ([1]; 0.125% MSM, Hr 96): <6.00 log | logs higher than the maximum of the control ([1]; 0.5% MSM): 0.5 logs | logs higher than the control ([1]; 0.5% MSM, hour 96): approximately 2 logs | logs of growth ([1]; 0.5% MSM, hour 96): 8.82 logs | Log Growth of Bifidobacteruim bifidum in Media Fortified with MSM ([1]; 0.5% MSM, Hr 0): 1.00 log | Log Growth of Bifidobacteruim bifidum in Media Fortified with MSM ([1]; 0.5% MSM, Hr 8): 2.84 log | Log Growth of Bifidobacteruim bifidum in Media Fortified with MSM ([1]; 0.5% MSM, Hr 16): 7.45 log | Log Growth of Bifidobacteruim bifidum in Media Fortified with MSM ([1]; 0.5% MSM, Hr 24): 8.81 log | Log Growth of Bifidobacteruim bifidum in Media Fortified with MSM ([1]; 0.5% MSM, Hr 32): 11.22 log | Log Growth of Bifidobacteruim bifidum in Media Fortified with MSM ([1]; 0.5% MSM, Hr 40): 12.09 log | Log Growth of Bifidobacteruim bifidum in Media Fortified with MSM ([1]; 0.5% MSM, Hr 48): 9.39 log | Log Growth of Bifidobacteruim bifidum in Media Fortified with MSM ([1]; 0.5% MSM, Hr 56): 9.51 log | Log Growth of Bifidobacteruim bifidum in Media Fortified with MSM ([1]; 0.5% MSM, Hr 64): 10.34 log | Log Growth of Bifidobacteruim bifidum in Media Fortified with MSM ([1]; 0.5% MSM, Hr 72): 8.35 log | Log Growth of Bifidobacteruim bifidum in Media Fortified with MSM ([1]; 0.5% MSM, Hr 80): 10.38 log | Log Growth of Bifidobacteruim bifidum in Media Fortified with MSM ([1]; 0.5% MSM, Hr 88): 9.70 log | Log Growth of Bifidobacteruim bifidum in Media Fortified with MSM ([1]; 0.5% MSM, Hr 96): 8.82 log | logs of growth (estimated, outside the countable range) ([1]; 1% MSM, Hour 96): less than 6 logs | Log Growth of Bifidobacteruim bifidum in Media Fortified with MSM ([1]; 1% MSM, Hr 0): 1.00 log | Log Growth of Bifidobacteruim bifidum in Media Fortified with MSM ([1]; 1% MSM, Hr 8): 2.73 log | Log Growth of Bifidobacteruim bifidum in Media Fortified with MSM ([1]; 1% MSM, Hr 16): 7.73 log | Log Growth of Bifidobacteruim bifidum in Media Fortified with MSM ([1]; 1% MSM, Hr 24): 8.81 log | Log Growth of Bifidobacteruim bifidum in Media Fortified with MSM ([1]; 1% MSM, Hr 32): 11.49 log | Log Growth of Bifidobacteruim bifidum in Media Fortified with MSM ([1]; 1% MSM, Hr 40): 11.19 log | Log Growth of Bifidobacteruim bifidum in Media Fortified with MSM ([1]; 1% MSM, Hr 48): 10.43 log | Log Growth of Bifidobacteruim bifidum in Media Fortified with MSM ([1]; 1% MSM, Hr 56): 10.57 log | Log Growth of Bifidobacteruim bifidum in Media Fortified with MSM ([1]; 1% MSM, Hr 64): 10.66 log | Log Growth of Bifidobacteruim bifidum in Media Fortified with MSM ([1]; 1% MSM, Hr 72): 8.34 log | Log Growth of Bifidobacteruim bifidum in Media Fortified with MSM ([1]; 1% MSM, Hr 80): 9.43 log | Log Growth of Bifidobacteruim bifidum in Media Fortified with MSM ([1]; 1% MSM, Hr 88): 10.41 log | Log Growth of Bifidobacteruim bifidum in Media Fortified with MSM ([1]; 1% MSM, Hr 96): <6.00 log | log increase of growth ([1]; 1% MSM, listed as order: Hour 80, Hour 88): 1 log | extension of the stationary phase ([1]; 5% MSM): 40 h | logs lower than the control ([1]; 5% MSM, Hour 48): 0.7 logs | Log Growth of Bifidobacteruim bifidum in Media Fortified with MSM ([1]; 5% MSM, Hr 0): 1.12 log | Log Growth of Bifidobacteruim bifidum in Media Fortified with MSM ([1]; 5% MSM, Hr 8): 2.04 log | Log Growth of Bifidobacteruim bifidum in Media Fortified with MSM ([1]; 5% MSM, Hr 16): 6.10 log | Log Growth of Bifidobacteruim bifidum in Media Fortified with MSM ([1]; 5% MSM, Hr 24): 8.43 log | Log Growth of Bifidobacteruim bifidum in Media Fortified with MSM ([1]; 5% MSM, Hr 32): 11.13 log | Log Growth of Bifidobacteruim bifidum in Media Fortified with MSM ([1]; 5% MSM, Hr 40): 11.78 log | Log Growth of Bifidobacteruim bifidum in Media Fortified with MSM ([1]; 5% MSM, Hr 48): 10.70 log | Log Growth of Bifidobacteruim bifidum in Media Fortified with MSM ([1]; 5% MSM, Hr 56): 10.59 log | Log Growth of Bifidobacteruim bifidum in Media Fortified with MSM ([1]; 5% MSM, Hr 64): 14.32 log | Log Growth of Bifidobacteruim bifidum in Media Fortified with MSM ([1]; 5% MSM, Hr 72): 8.65 log | Log Growth of Bifidobacteruim bifidum in Media Fortified with MSM ([1]; 5% MSM, Hr 80): 12.20 log | Log Growth of Bifidobacteruim bifidum in Media Fortified with MSM ([1]; 5% MSM, Hr 88): 12.31 log | Log Growth of Bifidobacteruim bifidum in Media Fortified with MSM ([1]; 5% MSM, Hr 96): 9.60 log | log increase of growth ([1]; […] MSM, Hour 88): 1 log | logs higher than the maximum of the control ([1]; […] MSM, maximum): 0.72 logs | Log Growth of Bifidobacteruim bifidum in Media Fortified with MSM ([1]; […] MSM, Hr 96): <6.00 log | logs higher in growth rate compared to the control ([1]; […] MSM, listed as order: hour 40, Hour 56 to hour 72): 0.7 logs | maximum growth reached before the control ([1]; all MSM concentrations (hour 32 vs hour 48)): 16 h | growth of normal flora (standard plate counts) ([2]; 5.0% MSM, throughout the study): did not allow any significant growth | Growth of non-probiotic microorganisms in Acidophilus Milk ([2]; A/B milk, […] MSM, Day 0): 370 cfu per mL
